Experimental data published in ChEMBL document CHEMBL1138862 (J Med Chem, 2006).

Assays:
Assay type in all cases: functional
[1] = tested on: Escherichia coli; test: Antibacterial activity against Escherichia coli W3110
[2] = tested on: Escherichia coli; test: Antibacterial activity against Escherichia coli pTMV19
[3] = tested on: Escherichia coli; test: Antibacterial activity against Escherichia coli pTMV19 in presence of mevalonate

Structure (SMILES)	inhibition zone (IZ) [1]	inhibition zone (IZ) [2]	inhibition zone (IZ) [3]
CC(NC(P(=O)(O)O)P(=O)(O)O)c1cccc2ccccc12 (stereo unspecified)	0 mm	0 mm	0 mm
CCn1c2ccccc2c2cc(NC(P(=O)(O)O)P(=O)(O)O)ccc21	0 mm	0 mm	0 mm
NC[C@@H]1O[C@H](O[C@H]2[C@@H](O)[C@H](O[C@@H]3[C@@H](O)[C@H](N)C[C@H](N)[C@H]3O[C@H]3O[C@H](CN)[C@@H](O)[C@H](O)[C@H]3N)O[C@@H]2CO)[C@H](N)[C@@H](O)[C@@H]1O [FRAMYCETIN]	15 mm	18 mm	12 mm
Cc1cccc(CC(O)(P(=O)(O)O)P(=O)(O)O)c1	0 mm	0 mm	0 mm
CN(CCOc1ccccc1)CCC(O)(P(=O)(O)O)P(=O)(O)O	11 mm	15 mm	11 mm
Cc1ccc(C)c(COc2ccc(C)nc2NC(P(=O)(O)O)P(=O)(O)O)c1	0 mm	0 mm	0 mm
CCCCCCCc1ccc(NC(P(=O)(O)O)P(=O)(O)O)cc1	0 mm	0 mm	0 mm
CCCCCCCCCCC(O)(P(=O)(O)O)P(=O)(O)O	0 mm	0 mm	0 mm
CCCCCCCCC(O)(P(=O)(O)O)P(=O)(O)O	9 mm	7 mm	0 mm
O=P(O)(O)C(Nc1ccc(Cl)cn1)P(=O)(O)O	13 mm	9 mm	12 mm
CCCCCCCCCC(O)(P(=O)(O)O)P(=O)(O)O	9 mm	0 mm	0 mm
Cc1cc(C)nc(NC(P(=O)(O)O)P(=O)(O)O)c1	11 mm	7 mm	0 mm
Cc1ncccc1NC(P(=O)(O)O)P(=O)(O)O	7 mm	8 mm	12 mm
O=P(O)(O)C(O)(Cc1c[nH]cn1)P(=O)(O)O	0 mm	0 mm	0 mm
O=P(O)(O)C(Nc1ccc(-c2ccccc2)cc1)P(=O)(O)O	9 mm	8 mm	7 mm
O=P(O)(O)C(NC1CCCCC1)P(=O)(O)O [(CYCLOHEXYLAMINO)METHYLENEDIPHOSPHONIC ACID]	7 mm	8 mm	9 mm
O=P(O)(O)C(Nc1ccc(Br)cn1)P(=O)(O)O	12 mm	11 mm	8 mm
CCCCCCCCc1ccc(C(O)(P(=O)(O)O)P(=O)(O)O)cc1	0 mm	0 mm	0 mm
O=P(O)(O)C(O)(Cc1cccc(C(F)(F)F)c1)P(=O)(O)O	7 mm	7 mm	0 mm
O=P(O)(O)C(Nc1cccc(-c2ccccc2)c1)P(=O)(O)O	8 mm	8 mm	0 mm
CO[C@@H]1[C@@H](OC(N)=O)[C@@H](O)[C@H](Oc2ccc3c(O)c(NC(=O)c4ccc(O)c(CC=C(C)C)c4)c(=O)oc3c2C)OC1(C)C [NOVOBIOCIN]	9 mm	9 mm	15 mm
O=P(O)(O)CC(c1ccccn1)P(=O)(O)O (stereo unspecified)	0 mm	0 mm	0 mm
